Experimental data from ChEMBL document CHEMBL1122903, “Synthesis, in vitro [3H]prazosin displacement, and in vivo activity of 3-aryl-4,5,6,7-tetrahydropyrazolo[4,3-c]pyridines, a new class of antihypertensive agents” (J Med Chem, 1985).
One block for each molecule: values may come before it.

Tests used:
Rattus norvegicus [1] = test: Antihypertensive activity on spontaneously hypertensive rats, when administered orally at a dose 30 mg/kg; type: functional; settings: route oral
[2] = target: T1, Adrenergic receptor alpha-1 (Rattus norvegicus, UniProt P15823+P23944+P43140); test: Ability to displace [3H]prazosin from postsynaptic alpha-1 adrenergic receptor of rat in vitro.; type: protein assay
T1 sequence (P15823 whole entry): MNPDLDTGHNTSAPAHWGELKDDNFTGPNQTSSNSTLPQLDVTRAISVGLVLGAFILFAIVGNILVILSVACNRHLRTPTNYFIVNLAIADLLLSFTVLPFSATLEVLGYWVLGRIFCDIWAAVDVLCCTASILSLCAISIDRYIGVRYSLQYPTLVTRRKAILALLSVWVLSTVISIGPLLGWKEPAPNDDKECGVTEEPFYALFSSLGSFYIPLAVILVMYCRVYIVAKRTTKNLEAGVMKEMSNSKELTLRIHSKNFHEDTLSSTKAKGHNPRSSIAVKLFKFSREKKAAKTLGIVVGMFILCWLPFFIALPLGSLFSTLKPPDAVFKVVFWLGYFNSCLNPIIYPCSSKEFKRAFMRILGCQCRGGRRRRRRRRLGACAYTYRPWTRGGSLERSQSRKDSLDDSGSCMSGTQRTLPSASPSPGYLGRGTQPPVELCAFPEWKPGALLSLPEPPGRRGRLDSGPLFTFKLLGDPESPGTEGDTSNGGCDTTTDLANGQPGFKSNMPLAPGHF
T1 sequence (P23944 whole entry): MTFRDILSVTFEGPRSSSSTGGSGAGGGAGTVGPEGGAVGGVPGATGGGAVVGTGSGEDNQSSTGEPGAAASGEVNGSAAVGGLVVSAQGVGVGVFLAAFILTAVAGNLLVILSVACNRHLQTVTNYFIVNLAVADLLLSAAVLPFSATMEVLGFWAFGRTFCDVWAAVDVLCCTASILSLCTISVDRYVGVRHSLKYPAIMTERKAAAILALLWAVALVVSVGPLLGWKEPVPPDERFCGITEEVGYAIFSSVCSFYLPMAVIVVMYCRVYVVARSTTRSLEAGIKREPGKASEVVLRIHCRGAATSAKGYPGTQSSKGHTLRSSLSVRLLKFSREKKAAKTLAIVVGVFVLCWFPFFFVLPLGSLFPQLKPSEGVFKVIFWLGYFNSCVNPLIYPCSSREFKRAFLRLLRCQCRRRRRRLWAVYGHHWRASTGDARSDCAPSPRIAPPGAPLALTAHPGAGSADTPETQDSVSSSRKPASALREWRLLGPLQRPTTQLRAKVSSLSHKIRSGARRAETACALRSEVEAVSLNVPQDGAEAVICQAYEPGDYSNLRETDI
T1 sequence (P43140 whole entry): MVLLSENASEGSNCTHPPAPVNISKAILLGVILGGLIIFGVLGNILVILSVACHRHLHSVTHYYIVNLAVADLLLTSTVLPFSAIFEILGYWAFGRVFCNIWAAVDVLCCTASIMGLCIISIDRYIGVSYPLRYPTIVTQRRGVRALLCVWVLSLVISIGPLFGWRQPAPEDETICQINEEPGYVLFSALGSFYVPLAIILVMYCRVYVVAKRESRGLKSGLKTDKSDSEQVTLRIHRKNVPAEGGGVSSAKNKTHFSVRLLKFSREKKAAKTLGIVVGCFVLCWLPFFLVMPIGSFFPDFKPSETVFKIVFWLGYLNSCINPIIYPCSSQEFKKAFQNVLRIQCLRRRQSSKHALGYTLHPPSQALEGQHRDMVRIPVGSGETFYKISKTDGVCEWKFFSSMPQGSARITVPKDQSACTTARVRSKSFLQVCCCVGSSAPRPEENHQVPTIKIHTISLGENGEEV

Canis familiaris [3] = test: Heart rate after 6 hours of oral administration in renal hypertensive dogs at dose 2 mg/kg; type: functional, Canis lupus familiaris
Canis familiaris [4] = test: Heart rate after 8 hours of oral administration in renal hypertensive dogs at dose 2 mg/kg; type: functional, Canis lupus familiaris
Canis familiaris [5] = test: Peak effect after 8 hours on heart rate after 3 days of oral administration in renal hypertensive dogs at dose 0.5 mg/kg; type: functional, Canis lupus familiaris
Canis familiaris [6] = test: Heart rate after 2 hours of oral administration in renal hypertensive dogs at dose 1 mg/kg; type: functional, Canis lupus familiaris
Canis familiaris [7] = test: Systolic blood pressure after 0 hours of oral administration in renal hypertensive dogs at dose 0.25 mg/kg; type: functional, Canis lupus familiaris
Canis familiaris [8] = test: Systolic blood pressure after 4 hours of oral administration in renal hypertensive dogs at dose 1 mg/kg (mean +/- SE for 3 animals /dose); type: functional, Canis lupus familiaris
Canis familiaris [9] = test: Peak effect after 8 hours on heart rate after 1 days of oral administration in renal hypertensive dogs at dose 0.5 mg/kg; type: functional, Canis lupus familiaris
Canis familiaris [10] = test: Systolic blood pressure after 4 hours of oral administration in renal hypertensive dogs at dose 0.25 mg/kg; type: functional, Canis lupus familiaris
Canis familiaris [11] = test: Systolic blood pressure after 8 hours of oral administration in renal hypertensive dogs at dose 2 mg/kg; type: functional, Canis lupus familiaris
Canis familiaris [12] = test: Systolic blood pressure after 2 hours of oral administration in renal hypertensive dogs at dose 1 mg/kg; type: functional, Canis lupus familiaris
Canis familiaris [13] = test: Systolic blood pressure after 2 hr of oral administration in renal hypertensive dogs at dose 2 mg/kg; type: functional, Canis lupus familiaris
Canis familiaris [14] = test: Heart rate after 8 hours of oral administration in renal hypertensive dogs at dose 0.25 mg/kg; type: functional, Canis lupus familiaris
Canis familiaris [15] = test: Systolic blood pressure after 6 hours of oral administration in renal hypertensive dogs at dose 0.25 mg/kg; type: functional, Canis lupus familiaris
Canis familiaris [16] = test: Heart rate after 8 hours of oral administration in renal hypertensive dogs at dose 1 mg/kg; type: functional, Canis lupus familiaris
Canis familiaris [17] = test: Heart rate after 6 hours of oral administration in renal hypertensive dogs at dose 1 mg/kg; type: functional, Canis lupus familiaris
Canis familiaris [18] = test: Peak effect after 8 hours on systolic blood pressure after 1 day of oral administration in renal hypertensive dogs at dose 0.5 mg/kg; type: functional, Canis lupus familiaris, Artery
Canis familiaris [19] = test: Peak effect after 8 hours on systolic blood pressure after 2 days of oral administration in renal hypertensive dogs at dose 0.5 mg/kg; type: functional, Canis lupus familiaris, Artery
Canis familiaris [20] = test: Systolic blood pressure after 6 hours of oral administration in renal hypertensive dogs at dose 1 mg/kg; type: functional, Canis lupus familiaris
Canis familiaris [21] = test: Heart rate after 2 hours of oral administration in renal hypertensive dogs at dose 2 mg/kg; type: functional, Canis lupus familiaris
Canis familiaris [22] = test: Systolic blood pressure after 4 hours of oral administration in renal hypertensive dogs at dose 2 mg/kg; type: functional, Canis lupus familiaris
Canis familiaris [23] = test: Heart rate after 4 hours of oral administration in renal hypertensive dogs at dose 1 mg/kg; type: functional, Canis lupus familiaris
Canis familiaris [24] = test: Heart rate after 0 hours of oral administration in renal hypertensive dogs at dose 1 mg/kg; type: functional, Canis lupus familiaris
Canis familiaris [25] = test: Peak effect after 8 hours on heart rate after 2 day of oral administration in renal hypertensive dogs at dose 0.5 mg/kg; type: functional, Canis lupus familiaris
Canis familiaris [26] = test: Peak effect after 8 hours systolic blood pressure after 3 days of oral administration in renal hypertensive dogs at dose 0.5 mg/kg; type: functional, Canis lupus familiaris, Artery
Canis familiaris [27] = test: Heart rate after 6 hours of oral administration in renal hypertensive dogs at dose 0.25 mg/kg; type: functional, Canis lupus familiaris
Canis familiaris [28] = test: Heart rate after 0 hours of oral administration in renal hypertensive dogs at dose 0.25 mg/kg; type: functional, Canis lupus familiaris
Canis familiaris [29] = test: Peak effect after 8 hours on heart rate after 7 days of oral administration in renal hypertensive dogs at dose 0.5 mg/kg; type: functional, Canis lupus familiaris
Canis familiaris [30] = test: Heart rate after 2 hours of oral administration in renal hypertensive dogs at dose 0.25 mg/kg; type: functional, Canis lupus familiaris
Canis familiaris [31] = test: Systolic blood pressure after 0 hours of oral administration in renal hypertensive dogs at dose 1 mg/kg; type: functional, Canis lupus familiaris
Canis familiaris [32] = test: Peak effect after 8 hours on systolic blood pressure after 7 days of oral administration in renal hypertensive dogs at dose 0.5 mg/kg; type: functional, Canis lupus familiaris, Artery
Canis familiaris [33] = test: Systolic blood pressure after 0 hours of oral administration in renal hypertensive dogs at dose 2 mg/kg; type: functional, Canis lupus familiaris
Canis familiaris [34] = test: Heart rate after 0 hours of oral administration in renal hypertensive dogs at dose 2 mg/kg; type: functional, Canis lupus familiaris
Rattus norvegicus [35] = test: Antihypertensive activity on spontaneously hypertensive rats when administered orally at a dose 50 mg/kg.; type: functional; settings: route oral
Canis familiaris [36] = test: Systolic blood pressure after 8 hours of oral administration in renal hypertensive dogs at dose 1 mg/kg; type: functional, Canis lupus familiaris
Canis familiaris [37] = test: Heart rate after 4 hours of oral administration in renal hypertensive dogs at dose 0.25 mg/kg; type: functional, Canis lupus familiaris
Canis familiaris [38] = test: Systolic blood pressure after 6 hours of oral administration in renal hypertensive dogs at dose 2 mg/kg; type: functional, Canis lupus familiaris
Canis familiaris [39] = test: Systolic blood pressure after 2 hours of oral administration in renal hypertensive dogs at dose 0.25 mg/kg; type: functional, Canis lupus familiaris
Canis familiaris [40] = test: Systolic blood pressure after 8 hours of oral administration in renal hypertensive dogs at dose 0.25 mg/kg; type: functional, Canis lupus familiaris
Canis familiaris [41] = test: Heart rate after 4 hours of oral administration in renal hypertensive dogs at dose 2 mg/kg; type: functional, Canis lupus familiaris

Ki [2]: 362 nM
Compound: CCn1nc(-c2ccc(F)cc2)c2c1CCN(C)C2.CS(=O)(=O)O
Delta p (Rattus norvegicus [1]): -37%

Ki [2]: 14.7 nM
Compound: Cl.Fc1ccc(-c2nn(Cc3ccccc3)c3c2CNCC3)cc1
Heart rate (Canis familiaris [3]): 97 beats min-1 | Heart rate (Canis familiaris [4]): 90 beats min-1 | Heart rate (Canis familiaris [5]): 105 beats min-1 | Heart rate (Canis familiaris [6]): 109 beats min-1 | SBP (Canis familiaris [7]): 200 mmHg | SBP (Canis familiaris [8]): 172 mmHg | Heart rate (Canis familiaris [9]): 100 beats min-1 | SBP (Canis familiaris [10]): 200 mmHg | SBP (Canis familiaris [11]): 156 mmHg | SBP (Canis familiaris [12]): 198 mmHg | SBP (Canis familiaris [13]): 183 mmHg | Heart rate (Canis familiaris [14]): 109 beats min-1 | SBP (Canis familiaris [15]): 188 mmHg | Heart rate (Canis familiaris [16]): 93 beats min-1 | Heart rate (Canis familiaris [17]): 96 beats min-1 | SBP (Canis familiaris [18]): 160 mmHg | SBP (Canis familiaris [19]): 155 mmHg | SBP (Canis familiaris [20]): 165 mmHg | Heart rate (Canis familiaris [21]): 107 beats min-1 | SBP (Canis familiaris [22]): 165 mmHg | Heart rate (Canis familiaris [23]): 105 beats min-1 | Heart rate (Canis familiaris [24]): 107 beats min-1 | Heart rate (Canis familiaris [25]): 95 beats min-1 | SBP (Canis familiaris [26]): 160 mmHg | Heart rate (Canis familiaris [27]): 105 beats min-1 | Heart rate (Canis familiaris [28]): 110 beats min-1 | Heart rate (Canis familiaris [29]): 95 beats min-1 | Heart rate (Canis familiaris [30]): 112 beats min-1 | SBP (Canis familiaris [31]): 200 mmHg | SBP (Canis familiaris [32]): 155 mmHg | SBP (Canis familiaris [33]): 203 mmHg | Heart rate (Canis familiaris [34]): 110 beats min-1 | Delta p (Rattus norvegicus [35]): -31% | SBP (Canis familiaris [36]): 165 mmHg | Heart rate (Canis familiaris [37]): 108 beats min-1 | SBP (Canis familiaris [38]): 155 mmHg | SBP (Canis familiaris [39]): 202 mmHg | SBP (Canis familiaris [40]): 190 mmHg | Heart rate (Canis familiaris [41]): 104 beats min-1
